The values that follow are results of earlier work, collected in US20180148480A1, “[…] ENHANCEMENT OF THE T-CELL ARM[…] AN ANTI-CANCER THERAPY” (THE JOHNS HOPKINS UNIVERSITY, priority 2015, published 2018).

Bounds are passed on as bounds.

The subject of series [1] is TSU (bladder).
Series [2] concerns TT (thyroid).
Series [3] deals with SN12C (renal).
The test system of series [4] is DU145.
Series [5] has as its system CWR22Rv1.
The subject of series [6] is LAPC-4.
Series [7] relates to LNCaP.
In series [8] the test system is PC3.
Series [9] deals with animals. The following applies: single intravenous dose; kills 100% of animals within 24 hrs.

wild-type PA: the LD50 concentration in [1], in [2], in series [3], in series [4], in series [5] and in series [6] was at most 50 pM throughout. In addition, the LD50 concentration in series [7] and in series [8] was at most 50 pM in each case. Further, in series [9], the LD100 is 0.1 µg.
